Assay results reported in US20160287549A1, “NOVEL METHODS FOR TREATING NEURODEGENERATIVE DISEASES” (GENZYME CORPORATION, priority 2013, published 2016).

Experiments:
PfDHODH = PfDHODH (Plasmodium falciparum, UniProt Q08210); conditions: cited from earlier work
hDHODH = hDHODH (Homo sapiens, UniProt Q02127); conditions: cited from earlier work
SOD1-G93A mice [1] = assay: Survival of symptomatic SOD1-G93A ALS mice; format: in vivo
Protocol: SOD1-G93A transgenic mice (also known as G93A-SOD1 mice) are currently the best available model to test experimental therapeutics for the treatment of ALS. […] For example, the transgenic mice present with progressive muscular atrophy and weakness. Neuroinflammation, demyelination, and motor neuron death are observed in the mice, and ultimately, the mice become paralyzed and have a shortened lifespan.
To evaluate the effectiveness of DHODH inhibitors in treating ALS, 10 mg/kg of teriflunomide was administered by oral gavage to 82 day old SOD1-G93A male mice.
(§1) In a second experiment, 20 mg/kg of teriflunomide was administered to 82 day old SOD1-G93A male and female mice (n=14/sex).
Male SOD1-G93A mice (n=14) were administered W19 (subcutaneous injection at 10 mg/kg for 5 consecutive days and then every 10 mg/kg every 2 weeks thereafter) was administered starting at 82 days of age. After 7 days, peripheral blood was collected and lymphocyte depletion was evaluated using flow cytometry.
Transgenic male (n=84) and female littermate (n=28) mice that express the mutant SOD1^G93A transgene at high-levels were divided to achieve cohort, sibling and sex matching amongst groups for these studies (Scott, S., et al. “Design, Power, and Interpretation of Studies in the Standard Murine Model of ALS.” Amyotrophic Lateral Sclerosis 9.1 (2008): 4-15. SCOPUS. Web. 18 Nov. 2013). Mutant SOD1 gene copy number and SOD1 protein expression were confirmed by PCR and western blot analysis. Animals were housed under light:dark (12:12 h) cycle and provided with food and water ad libitum. All procedures were performed using protocols approved by Genzyme Corporation's Institutional Animal Care and Use Committees.
Mice were scored into the following phases: presymptomatic (Pre-SYMP)=no visible motor abnormalities (i.e., normal hind limb splay); Symptomatic (SYMP)=abnormal hindlimb splay; End stage (ES)=onset of limb paralysis (typically hindlimb); and Moribund (MB)=unable to right themselves within 30 sec after being placed on their back.

[2] = cited from earlier work
SOD1-G93A mice [3] = assay: Grip strength performance test in SOD1-G93A mice; format: in vivo; conditions: for grip strength loss (percent decline from baseline): 20 mg/kg oral gavage, baseline at 82 days, control 46.14-67.38% loss
Protocol: as §1
Testing of motor function using a grip strength device (Columbus Instruments, Columbus, Ohio) began at 60-70 days of age as previously described (Dodge, J. C. et al. (2008) 16:1056-1064). Each weekly session consisted of 4 tests per animal. Data shown represent percent decline in strength from baseline. Baseline measurements were made at 82 days of age. Percent reduction is grip strength is shown for vehicle treated mice scored as ES and age matched sibling mice treated with teriflunomide.

[4] = tested on: murine colon 38 tumor model; conditions: tissue-specific modulation of uridine nucleotide pools; cited from earlier work
L1210 murine leukemia = conditions: cited from earlier work

PfDHODH, sequence (Q08210 24-569): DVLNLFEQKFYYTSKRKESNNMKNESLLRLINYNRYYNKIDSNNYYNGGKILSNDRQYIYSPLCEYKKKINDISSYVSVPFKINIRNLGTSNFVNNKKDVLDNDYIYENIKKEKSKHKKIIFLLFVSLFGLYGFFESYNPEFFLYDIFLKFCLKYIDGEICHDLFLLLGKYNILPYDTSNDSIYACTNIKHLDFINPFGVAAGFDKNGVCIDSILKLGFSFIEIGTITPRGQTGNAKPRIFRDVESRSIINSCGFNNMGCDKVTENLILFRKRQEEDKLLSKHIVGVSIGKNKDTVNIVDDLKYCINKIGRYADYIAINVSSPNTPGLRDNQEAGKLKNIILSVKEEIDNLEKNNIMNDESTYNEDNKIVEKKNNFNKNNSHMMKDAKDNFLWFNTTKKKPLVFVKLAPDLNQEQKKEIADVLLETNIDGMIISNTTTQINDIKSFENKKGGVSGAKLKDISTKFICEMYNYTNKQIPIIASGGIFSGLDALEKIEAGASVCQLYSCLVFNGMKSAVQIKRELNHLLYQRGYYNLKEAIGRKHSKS
hDHODH, sequence (Q02127 whole entry): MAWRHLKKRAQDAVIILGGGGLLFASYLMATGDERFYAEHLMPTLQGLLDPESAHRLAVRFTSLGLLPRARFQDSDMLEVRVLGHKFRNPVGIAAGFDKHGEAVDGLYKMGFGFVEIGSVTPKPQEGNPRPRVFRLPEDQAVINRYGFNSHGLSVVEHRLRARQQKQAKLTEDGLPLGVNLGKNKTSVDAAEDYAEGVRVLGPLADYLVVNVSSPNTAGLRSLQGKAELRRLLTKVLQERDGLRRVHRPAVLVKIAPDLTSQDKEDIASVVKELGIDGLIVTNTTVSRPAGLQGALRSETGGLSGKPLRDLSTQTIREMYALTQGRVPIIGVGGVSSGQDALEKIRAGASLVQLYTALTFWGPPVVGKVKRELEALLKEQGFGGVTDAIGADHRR

CCOC(=O)C(=CNc1ccc(C(=O)OCC)cc1)C(=O)OCC [Compound 59]
PfDHODH(50 μM) (PfDHODH): 15 ± 4 | hDHODH(50 μM) (hDHODH): 4 ± 2

CCOC(=O)C(=CNc1cccc(C(=O)OCC)c1)C(=O)OCC [Compound 58]
PfDHODH(50 μM) (PfDHODH): 0 ± 4 | hDHODH(50 μM) (hDHODH): 5 ± 2

C/C(O)=C(\C#N)C(=O)Nc1ccc(C(F)(F)F)cc1 [teriflunomide, (Z)-2-cyano-3-hydroxy-but-2-enoic acid-(4′-trifluoromethylphenyl)-amide]
increase in survival as compared to control (SOD1-G93A mice [1]; 10 mg/kg oral gavage, 82 day old male SOD1-G93A mice): 7 days | median survival (SOD1-G93A mice [1]; 10 mg/kg oral gavage, 82 day old male SOD1-G93A mice, control 127 days, p<0.005): 134 days | median survival (SOD1-G93A mice [1]; 20 mg/kg oral gavage, 82 day old male and female SOD1-G93A mice, control 130 days, p<0.04): 146.5 days | increase in median survival as compared to control (SOD1-G93A mice [1]; 20 mg/kg, 82 day old male and female SOD1-G93A mice): 16.5 days | solubility in acetone ([2]; acetone): sparingly soluble | solubility in ethanol ([2]; ethanol): slightly soluble | solubility in isopropanol ([2]; isopropanol): very slightly soluble | solubility in polyethylene glycol ([2]; polyethylene glycol): slightly soluble | solubility in water ([2]; water): practically insoluble | grip strength loss (percent decline from baseline) (SOD1-G93A mice [3]; female SOD1-G93A mice): −24.06% | grip strength loss (percent decline from baseline) (SOD1-G93A mice [3]; male SOD1-G93A mice): −20.14% | effect on muscle strength loss (SOD1-G93A mice [3]; 20 mg/kg, male and female SOD1-G93A mice): significantly slowed muscle strength loss

CCOC(=O)C(C#N)=CNc1ccc(C(=O)OCC)cc1 [Compound 60]
PfDHODH(50 μM) (PfDHODH): 2 ± 4 | hDHODH(50 μM) (hDHODH): 2 ± 2

Cc1c(-c2ccc(-c3ccccc3F)cc2)nc2ccc(F)cc2c1C(=O)O [Brequinar]
effect on 5-fluorouracil antitumor activity [4]: potentiates 5-fluorouracil antitumor activity | anticancer activity (L1210 murine leukemia): exhibits anticancer activity
